Columns and labels:
[1] = test system: T cell lines primed in vitro to Der p I; test: secondary proliferation of Der p I-primed T cell lines (Examples V, VII, XI); assay type: cell-based, human; details: for T cell reactivity: overlapping Der p I peptides
Method in brief: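 PBMC were primed with native or recombinant Der p I (10 or 20 μg/ml) for 7 days, then expanded with IL-2 and IL-4. Resting T cells (2×10^4) were cultured 3 days with irradiated autologous EBV-B cells or PBMC and titrated protein or peptides, then pulsed 16 h with 1 μCi ³H-thymidine. S.I. was peak-response CPM over medium-only CPM, with S.I. ≥2.0 scored positive.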

[2] = test system: T cell lines primed in vitro to Der f I; test: secondary proliferation of Der f I-primed T cell lines (Examples VI, VII, XI); assay type: cell-based, human; details: for T cell response to Der p I peptides: Der f I primed, 8 positive experiments, FIG. 8
Method in brief: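 PBMC from house dust mite-allergic patients were primed in vitro with recombinant or affinity-purified Der f I at 20 μg/ml (or 10 μg/ml), then rechallenged with Der f I peptides. Antigen-presenting cells were x-irradiated autologous PBMC (3500 Rads) or EBV-transformed B cells (25,000 Rads). Read-out was T cell proliferation.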

DF I-22.2: VAATESAYLAYRNTSLDLSEQELVD, amino acid residues 40-64 of Der f I
T cell response to selected Der f I peptides ([1]; Der p I primed, 30 positive experiments, FIG. 15a): respond significantly | stimulation index, rank in group ([2]; 9 patients, FIG. 16a / 16b): highest stimulation index

DP I-1: Der p I peptide, amino acid residues 1-20 (TNACSINGNAPAEIDLRQMR)
percent of positive responses (S.I. of at least 2) ([1]; 33 patients): 73% | T cell reactivity ([1]; 33 positive experiments): significant regions of T cell reactivity | T cell response to Der p I peptides [2]: respond significantly

DP I-3: Der p I peptide (TVTPIRMQGGCGSCWAFSGVAATESAYLA)
T cell reactivity ([1]; 33 positive experiments): significant regions of T cell reactivity | T cell response to Der p I peptides [2]: respond significantly

DP I-21.2: Der p I peptide; unique peptide (SINGNAPAEIDLRQMRTVTPIRMQ)
T cell response to selected Der p I peptides ([1]; 33 positive experiments, FIG. 13): respond significantly | positivity index (P.I.) ([1]; mean S.I. × percent responders, 33 patients): at least 150

From patent US5968526A, “T cell epitopes of the major allergens from Dermatophagoides (house dust mite)” (Immulogic Pharamaceutical Corporation, priority 1995, dated 1999)
